Numbering of substitutions follows the chain as printed.
Legend:
Experiment in all cases: DNA degradation, agarose gel
Type in all cases: biochemical
[1] = target: T1, AsCap5 (Asticcacaulis sp., UniProt Z9IC27YPF2); details: activator; 50 nM Cap5, linearized plasmid 25 nM; 1 mM MgCl2, 0.5 mM MnCl2, pH 7.4, 37 °C, 15 min; 10-fold dilution steps
T1 construct: full length; E. coli BL21(DE3), N-terminal 6xHis-SUMO tag cut with Ulp1; codon-optimized gene; homodimer (N-terminal HNH, C-terminal SAVED)
T1 sequence (Z9IC27YPF2 1-384): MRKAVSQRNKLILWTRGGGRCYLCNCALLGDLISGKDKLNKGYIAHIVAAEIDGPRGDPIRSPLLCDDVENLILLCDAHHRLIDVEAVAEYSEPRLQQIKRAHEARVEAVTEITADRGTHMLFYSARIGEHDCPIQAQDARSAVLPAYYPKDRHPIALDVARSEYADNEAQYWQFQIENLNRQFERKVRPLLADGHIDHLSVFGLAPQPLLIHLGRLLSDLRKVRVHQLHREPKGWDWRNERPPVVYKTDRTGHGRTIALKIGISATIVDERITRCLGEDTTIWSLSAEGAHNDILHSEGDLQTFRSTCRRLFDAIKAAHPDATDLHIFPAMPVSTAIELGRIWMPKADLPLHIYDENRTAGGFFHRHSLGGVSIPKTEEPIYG

[2] = target: T2, AsCap5 (Asticcacaulis sp., UniProt Z9IC27YPF2, K347A); details: activator; 10 nM cGAMP; linearized plasmid 25 nM; 1 mM MgCl2, 0.5 mM MnCl2, pH 7.4, 37 °C, 15 min
T2 construct: full length; E. coli BL21(DE3), N-terminal 6xHis-SUMO tag cut with Ulp1; codon-optimized gene; homodimer (N-terminal HNH, C-terminal SAVED)
T2 sequence (Z9IC27YPF2 1-384 K347A): T1 sequence (Z9IC27YPF2 1-384) with K347A

[3] = target: T3, AsCap5 (Asticcacaulis sp., UniProt Z9IC27YPF2, D220A); details: activator; 10 nM cGAMP; linearized plasmid 25 nM; 1 mM MgCl2, 0.5 mM MnCl2, pH 7.4, 37 °C, 15 min
T3 construct: full length; E. coli BL21(DE3), N-terminal 6xHis-SUMO tag cut with Ulp1; codon-optimized gene; homodimer (N-terminal HNH, C-terminal SAVED)
T3 sequence (Z9IC27YPF2 1-384 D220A): T1 sequence (Z9IC27YPF2 1-384) with D220A

[4] = target: T4, AsCap5 (Asticcacaulis sp., UniProt Z9IC27YPF2, R310K); details: activator; 10 nM cGAMP; linearized plasmid 25 nM; 1 mM MgCl2, 0.5 mM MnCl2, pH 7.4, 37 °C, 15 min
T4 construct: full length; E. coli BL21(DE3), N-terminal 6xHis-SUMO tag cut with Ulp1; codon-optimized gene; homodimer (N-terminal HNH, C-terminal SAVED)
T4 sequence (Z9IC27YPF2 1-384 R310K): T1 sequence (Z9IC27YPF2 1-384) with R310K

[5] = target: T5, AsCap5 (Asticcacaulis sp., UniProt Z9IC27YPF2, K347R); details: activator; 10 nM cGAMP; linearized plasmid 25 nM; 1 mM MgCl2, 0.5 mM MnCl2, pH 7.4, 37 °C, 15 min
T5 construct: full length; E. coli BL21(DE3), N-terminal 6xHis-SUMO tag cut with Ulp1; codon-optimized gene; homodimer (N-terminal HNH, C-terminal SAVED)
T5 sequence (Z9IC27YPF2 1-384 K347R): T1 sequence (Z9IC27YPF2 1-384) with K347R

[6] = target: T6, AsCap5 (Asticcacaulis sp., UniProt Z9IC27YPF2, D349A); details: activator; 10 nM cGAMP; linearized plasmid 25 nM; 1 mM MgCl2, 0.5 mM MnCl2, pH 7.4, 37 °C, 15 min
T6 construct: full length; E. coli BL21(DE3), N-terminal 6xHis-SUMO tag cut with Ulp1; codon-optimized gene; homodimer (N-terminal HNH, C-terminal SAVED)
T6 sequence (Z9IC27YPF2 1-384 D349A): T1 sequence (Z9IC27YPF2 1-384) with D349A

[7] = target: T7, AsCap5 (Asticcacaulis sp., UniProt Z9IC27YPF2, R310Q); details: activator; 10 nM cGAMP; linearized plasmid 25 nM; 1 mM MgCl2, 0.5 mM MnCl2, pH 7.4, 37 °C, 15 min
T7 construct: full length; E. coli BL21(DE3), N-terminal 6xHis-SUMO tag cut with Ulp1; codon-optimized gene; homodimer (N-terminal HNH, C-terminal SAVED)
T7 sequence (Z9IC27YPF2 1-384 R310Q): T1 sequence (Z9IC27YPF2 1-384) with R310Q

[8] = target: T8, AsCap5 (Asticcacaulis sp., UniProt Z9IC27YPF2, K347Q); details: activator; 10 nM cGAMP; linearized plasmid 25 nM; 1 mM MgCl2, 0.5 mM MnCl2, pH 7.4, 37 °C, 15 min
T8 construct: full length; E. coli BL21(DE3), N-terminal 6xHis-SUMO tag cut with Ulp1; codon-optimized gene; homodimer (N-terminal HNH, C-terminal SAVED)
T8 sequence (Z9IC27YPF2 1-384 K347Q): T1 sequence (Z9IC27YPF2 1-384) with K347Q

[9] = target: T9, LlCap5 (Lactococcus cremoris, UniProt A0A1E7G0A2); details: activator; 50 nM Cap5, linearized plasmid 25 nM; 1 mM MgCl2, 0.5 mM MnCl2, pH 7.4, 37 °C, 15 min; 10-fold dilution steps
T9 construct: gene AJ89_14580; full length; E. coli BL21(DE3), N-terminal 6xHis-SUMO tag cut with Ulp1; codon-optimized gene; homodimer (N-terminal HNH, C-terminal SAVED)

[10] = target: T9, LlCap5; details: activator; 50 nM Cap5, linearized plasmid 25 nM; 1 mM MgCl2, 0.5 mM MnCl2, pH 7.4, 37 °C, 15 min; 10-fold dilution steps; remark: listed apart in the source
[11] = target: T1, AsCap5; details: activator; 50 nM Cap5, linearized plasmid 25 nM; 1 mM MgCl2, 0.5 mM MnCl2, pH 7.4, 37 °C, 15 min; 10-fold dilution steps; remark: listed apart in the source

T9 sequence (A0A1E7G0A2 entry or part of it): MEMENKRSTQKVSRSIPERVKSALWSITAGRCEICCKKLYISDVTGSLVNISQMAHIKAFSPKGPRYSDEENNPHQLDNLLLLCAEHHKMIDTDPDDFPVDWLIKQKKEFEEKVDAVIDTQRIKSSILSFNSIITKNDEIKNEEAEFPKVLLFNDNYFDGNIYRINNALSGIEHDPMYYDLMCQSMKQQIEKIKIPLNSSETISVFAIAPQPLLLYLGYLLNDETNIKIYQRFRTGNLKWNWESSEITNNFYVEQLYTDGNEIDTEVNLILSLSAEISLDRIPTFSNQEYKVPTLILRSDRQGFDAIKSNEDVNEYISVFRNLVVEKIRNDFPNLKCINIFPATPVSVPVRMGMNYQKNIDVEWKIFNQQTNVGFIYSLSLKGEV

Row | Structure (SMILES) | concentration giving significant DNA degradation [1] | % reduction of activity [2] | estimated activity (% of wild type) [3] | estimated activity [4] | fold less active than wild type [5] | estimated activity [6] | estimated activity [7] | estimated activity [8] | concentration giving significant DNA degradation [9] | concentration giving same degradation as 10 nM 3′,2′-cGAMP [10] | concentration giving same degradation as 10 nM 3′,2′-cGAMP [11]
1 | Nc1nc2c(ncn2[C@@H]2O[C@@H]3COP(=O)(O)O[C@@H]4[C@H](O)[C@@H](COP(=O)(O)O[C@H]3[C@H]2O)O[C@H]4n2cnc3c(N)ncnc32)c(=O)[nH]1 [3′,2′-cGAMP] | ~ 10 nM | ~ 98% | ~ 15% | R310K and R310Q mutants, and both also showed significantly reduced activities | ~ 10 fold | D349A mutation showed a similar degree of reduced activity as D220A mutation | R310K and R310Q mutants, and both also showed significantly reduced activities | it was even less active than K347A mutant | ~ 10 nM | – | –
2 | Nc1nc2c(ncn2[C@@H]2O[C@@H]3COP(=O)(O)O[C@H]4[C@@H](O)[C@H](n5cnc6c(N)ncnc65)O[C@@H]4COP(=O)(O)O[C@H]3[C@H]2O)c(=O)[nH]1 [3′,3′-cGAMP] | – | – | – | – | – | – | – | – | – | ~ 100 μM | ~ 100 μM

From PMC8568899, “Molecular mechanisms of the CdnG-Cap5 antiphage defense system employing 3′,2′-cGAMP as the second messenger” (Nature Communications, 2021)
